Experimental data taken from PubChem BioAssay (NCI).
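GI50: concentration for 50% inhibition of growth. Definition used: TGI = concentration required for complete inhibition of growth.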

Assays:
Experiment in all cases: NCI tumour cell line growth inhibition, 384-well format
COLO 205 colon = test system: COLO 205 colon
HOP-62 NSCLC = test system: HOP-62 NSCLC
K-562 leukemia = test system: K-562 leukemia
MALME-3M melanoma = test system: MALME-3M melanoma
MDA-MB-231 breast = test system: MDA-MB-231 breast
MDA-MB-435 melanoma = test system: MDA-MB-435 melanoma
NCI-H23 lung = test system: NCI-H23 lung
NCI-H322M lung = test system: NCI-H322M lung
NCI-H460 NSCLC = test system: NCI-H460 NSCLC
NCI/ADR-RES ovarian = test system: NCI/ADR-RES ovarian
OVCAR-5 ovarian = test system: OVCAR-5 ovarian
SNB-75 CNS = test system: SNB-75 CNS
UACC-62 melanoma = test system: UACC-62 melanoma

CC(C)[C@](O)(c1ccc2cc(OC(F)F)c(OC(F)F)cc2c1)c1cn[nH]n1
GI50 (COLO 205 colon): 20.3 µM | TGI (COLO 205 colon): 39.9 µM | GI50 (HOP-62 NSCLC): 16.3 µM | TGI (HOP-62 NSCLC): 30 µM | GI50 (K-562 leukemia): 11 µM | TGI (K-562 leukemia): 23.5 µM | GI50 (MALME-3M melanoma): 16.7 µM | TGI (MALME-3M melanoma): 30.9 µM | GI50 (MDA-MB-231 breast): 13.2 µM | TGI (MDA-MB-231 breast): 26.3 µM | GI50 (MDA-MB-435 melanoma): 16.9 µM | TGI (MDA-MB-435 melanoma): 31.3 µM | GI50 (NCI-H23 lung): 14.8 µM | TGI (NCI-H23 lung): 29.6 µM | GI50 (NCI-H322M lung): 17.3 µM | TGI (NCI-H322M lung): 33 µM | GI50 (NCI-H460 NSCLC): 16.6 µM | TGI (NCI-H460 NSCLC): 30.5 µM | GI50 (NCI/ADR-RES ovarian): 18.7 µM | TGI (NCI/ADR-RES ovarian): 33.8 µM | GI50 (OVCAR-5 ovarian): 17.3 µM | TGI (OVCAR-5 ovarian): 38.2 µM | GI50 (SNB-75 CNS): 14.9 µM | TGI (SNB-75 CNS): 29.5 µM | GI50 (UACC-62 melanoma): 16.4 µM | TGI (UACC-62 melanoma): 30 µM
